Assay results published in patent US8580975B2, “Synthesis of macrocyclic cancer chemotherapy agents and methods of use” (Purdue Research Foundation, priority 2008, dated 2013).

Experiments:
[1] = tested on: P388 murine leukemia cells; assay: cell proliferation assay; type: cell-based
[2] = tested on: P388 murine leukemia cells; details: background, natural peloruside A; cited from earlier work
[3] = Mus musculus, P388 murine leukemia cells

Molecule: CC[C@H](/C=C(/C)[C@@H]1C[C@@H](OC)C[C@H](O)C(C)(C)C(=O)[C@H](O)[C@H](OC)C[C@@H](O)C[C@@H](OC)CC(=O)O1)CO [Open Chain Isomer Of 2-Des-Hydroxy-Peloruside A]
- IC50 ([1]; Mus musculus, P388): > 5 µM

Molecule: epi-C-11 Peloruside A
- IC50 ([1]; P388 murine leukemia cells): 0.01 µM

Molecule: (+)-Peloruside A [reference compound]
- IC50 ([1]; P388 murine leukemia cells): 0.01 µM
- IC50 value, antitumor activity against P388 murine leukemia cells [2]: 0.01 µg/mL

Molecule: CC[C@H](/C=C(/C)[C@@H]1C[C@@H](OC)C[C@H](O)C(C)(C)[C@@]2(O)O[C@@H](C[C@@H](OC)CC(=O)O1)C[C@@H](OC)[C@H]2O)CO [2-des-Hydroxy-Peloruside A]
- IC50 [1, 3]: 0.12 µM

Molecule: CC[C@H](/C=C(/C)[C@@H]1C[C@@H](OC)C[C@H](O)C(C)(C)[C@@]2(O)O[C@@H](C[C@@H](OC)CC(=O)O1)C[C@@H](O)[C@H]2O)CO [2-des-Hydroxy-7-des-methoxy-7-hydroxy-Peloruside A]
- IC50 [1, 3]: 0.32 µM
